This note sets out measurements from patent publication US11590116B2 (THERAVANCE BIOPHARMA R&D IP, LLC, priority 2019, dated 2023).

Molecules are shown by their SMILES. A value given as a limit tells only on which side of the number the result lay.

Assay [1] concerns TGF-β-stimulated SMAD3 phosphorylation in BEAS-2B cells. Put plainly: Cellular ALK5 potency assay, inhibition of TGF-β stimulated pSMAD3 formation in BEAS-2B cells. The format is cell-based. The conditions noted are these: Homo sapiens; inhibition of TGF-β stimulated pSMAD3 formation, BEAS-2B cells; read-out: BEAS2B pIC50 (converted). The procedure, abridged: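 AlphaLISA pSMAD3 read-out, beads incubated overnight. Human BEAS-2B cells: 1 h compound preincubation (37 °C, 5% CO2), then 30 min TGF-β at 10 ng/mL final, immediate lysis. Values are pIC50 relative to stimulated, compound-free baseline.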

Assay [2] deals with T1, recombinant human ALK5 (TGF-βR1) protein (Homo sapiens, UniProt P36897).
T1 construct: purchased Life Technologies PR9075A
T1 sequence (P36897 34-503): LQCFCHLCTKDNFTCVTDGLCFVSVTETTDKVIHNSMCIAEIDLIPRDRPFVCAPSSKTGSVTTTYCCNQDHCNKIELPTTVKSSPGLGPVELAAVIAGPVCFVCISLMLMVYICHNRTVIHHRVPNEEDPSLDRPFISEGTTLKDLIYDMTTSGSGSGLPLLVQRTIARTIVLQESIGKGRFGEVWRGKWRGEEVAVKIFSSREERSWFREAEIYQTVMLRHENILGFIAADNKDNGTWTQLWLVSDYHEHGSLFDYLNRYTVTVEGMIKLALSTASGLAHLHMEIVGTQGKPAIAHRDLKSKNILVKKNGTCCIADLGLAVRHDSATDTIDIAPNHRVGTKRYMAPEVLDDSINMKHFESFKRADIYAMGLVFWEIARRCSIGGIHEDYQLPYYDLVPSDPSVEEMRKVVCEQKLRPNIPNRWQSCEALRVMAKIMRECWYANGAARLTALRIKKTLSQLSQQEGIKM
As to the kind of experiment: Biochemical ALK5 (TGF-βR1) assay to measure pKi (LANCE Ultra ULight kinase assay). The settings on record: apparent pKi from pIC50 by Cheng-Prusoff, read-out: ALK5 pKi (converted). The procedure, abridged:
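After a 60 min room-temperature preincubation of ALK5 with compound, phosphorylation proceeds 60 min at 37 °C on ATP addition (125 μM as 5× stock). Detection: Eu-labelled phospho-Thr1342 Topo IIα antibody in EDTA buffer, pH 7.0; emission 665 nm.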
(In general: In TR-FRET formats the signal depends on donor and acceptor labels being close together.)

Regarding `Cc1cccc(-c2[nH]cnc2-c2ccc3ncc(-c4ccc(C(=O)OC5CCNCC5)nc4)cc3c2)n1` [Compound 110, piperidin-4-yl 5-(6-(5-(6-methylpyridin-2-yl)-1H-imidazol-4-yl)quinolin-3-yl)picolinate], the IC50 in assay [1] was 25.1 to 158 nM. Also, in assay [2], the Ki was 0.0398 to 0.316 nM.

For the molecule `Cc1cccc(-c2[nH]cnc2-c2ccc3ncc(-c4cn[nH]c4)cc3n2)n1` [Compound 644, 2-(5-(6-methylpyridin-2-yl)-1H-imidazol-4-yl)-7-(1H-pyrazol-4-yl)-1,5-naphthyridine], the IC50 in assay [1] is below 20 nM. In addition, the Ki in assay [2] is below 0.0316 nM.

With `Cc1cccc(-c2[nH]cnc2-c2ccc3ncc(C4=CCC(C(=O)OCC5CNC5)CC4)cc3c2)n1` (stereo not drawn) [Compound 36, azetidin-3-ylmethyl 4-[6-[5-(6-methyl-2-pyridyl)-1H-imidazol-4-yl]-3-quinolyl]cyclohex-3-ene-1-carboxylate], the IC50 in assay [1] is 25.1 to 158 nM. The Ki in assay [2] is 0.0398 to 0.316 nM.

As for `CCOC(=O)c1ccnc2ccc(-c3c(-c4cccc(C)n4)n[nH]c3-c3cccc(F)c3)nc12` [Compound 858, ethyl 6-[5-(3-fluorophenyl)-3-(6-methyl-2-pyridyl)-1H-pyrazol-4-yl]-1,5-naphthyridine-4-carboxylate], in assay [1], the IC50 was 200 to 1260 nM. Further, the Ki in assay [2] is 3.98 to 31.6 nM.

Consider `Cc1cccc(-c2n[nH]cc2-c2ccc3ncc(N4CCN(CCN(C)C)CC4)cc3n2)n1` [Compound 292, N,N-dimethyl-2-[4-[6-[3-(6-methyl-2-pyridyl)-1H-pyrazol-4-yl]-1,5-naphthyridin-3-yl]piperazin-1-yl]ethanamine], for which the IC50 in assay [1] was 25.1 to 158 nM. Besides, in assay [2], the Ki is below 0.0316 nM.

For the molecule `Cc1cccc(-c2[nH]cnc2-c2ccc3ncc(NCCC4CNC4)cc3c2)n1` [Compound 116, N-[2-(azetidin-3-yl)ethyl]-6-[5-(6-methyl-2-pyridyl)-1H-imidazol-4-yl]quinolin-3-amine], in assay [1], the IC50 is 25.1 to 158 nM. In addition, the Ki in assay [2] was 0.0398 to 0.316 nM.

With `Cc1cccc(-c2[nH]nnc2-c2ccc3ncc(N4CCC(N5CCN(C)CC5)CC4)cc3n2)n1` [Compound 119, 7-[4-(4-methylpiperazin-1-yl)-1-piperidyl]-2-[5-(6-methyl-2-pyridyl)-1H-triazol-4-yl]-1,5-naphthyridine], in assay [1], the IC50 is 200 to 1260 nM. Moreover, the Ki in assay [2] is 0.0398 to 0.316 nM.

With `Cc1cccc(-c2n[nH]cc2-c2ccc3ncc(CNCCN4CCN(C(C)C)CC4)cc3n2)n1` [Compound 324, 2-(4-isopropylpiperazin-1-yl)-N-[[6-[3-(6-methyl-2-pyridyl)-1H-pyrazol-4-yl]-1,5-naphthyridin-3-yl]methyl]ethanamine], the IC50 in assay [1] was 25.1 to 158 nM. The Ki in assay [2] is 0.398 to 3.16 nM.

Consider `CNC1CCN(c2cnc3ccc(-c4c(-c5cccc(C)n5)[nH]c5cccnc45)nc3c2)CC1` [Compound 328, N-methyl-1-[6-[2-(6-methyl-2-pyridyl)-1H-pyrrolo[3,2-b]pyridin-3-yl]-1,5-naphthyridin-3-yl]piperidin-4-amine], for which, in assay [1], the IC50 was 200 to 1260 nM. In addition, the Ki in assay [2] was 0.398 to 3.16 nM.

Take `Cc1cccc(-c2[nH]cnc2-c2ccc3ncc(-c4cccc(NC5CCNCC5)n4)cc3c2)n1` [Compound 450, 6-[6-[5-(6-methyl-2-pyridyl)-1H-imidazol-4-yl]-3-quinolyl]-N-(4-piperidyl)pyridin-2-amine]: in assay [1], the IC50 was 25.1 to 158 nM. Besides, the Ki in assay [2] is 0.0398 to 0.316 nM.

In the case of `Cc1cccc(-c2n[nH]cc2-c2ccc3ncc(NCCN4CCNCC4)cc3n2)n1` [Compound 668, 6-[3-(6-methyl-2-pyridyl)-1H-pyrazol-4-yl]-N-(2-piperazin-1-ylethyl)-1,5-naphthyridin-3-amine], the IC50 in assay [1] is 200 to 1260 nM. For the same molecule, in assay [2], the Ki is below 0.0316 nM.

Regarding `Cc1cccc(-c2n[nH]cc2-c2ccc3ncc(N4CCNC5(CCC5)C4)cc3n2)n1` [Compound 223, 7-(5,8-diazaspiro[3.5]nonan-8-yl)-2-[3-(6-methyl-2-pyridyl)-1H-pyrazol-4-yl]-1,5-naphthyridine], the IC50 in assay [1] was 25.1 to 158 nM. In assay [2], the Ki was 0.0398 to 0.316 nM.
